Common to all, as to format: cell-based
Data set [1] relates to P. falciparum 3D7 (chloroquine-sensitive). In words: Anti-malarial activity, P. falciparum 3D7 culture, 72 hour, DNA content by flow cytometry. The following applies: Plasmodium falciparum, 3D7, 72 h, synchronized ring-stage parasites. The essentials: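 Magnet-synchronized ring-stage parasites in RPMI 1640/Albumax II were plated at 0.5% parasitemia, 4% final hematocrit, with compound added as 2× dilutions (2.5 μM to 20 nM) for 72 h. Fixed, Triton-permeabilized cells were stained with SYTOX Green (5 μM final), and DNA content was measured by flow cytometry to derive IC50.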
In general terms: In flow cytometry, cells or beads pass a laser one at a time.

The subject of data set [2] is P. falciparum DD2 (chloroquine-resistant). Kind of data set: Anti-malarial activity, P. falciparum DD2 culture, 72 hour, DNA content by flow cytometry. The following applies: Plasmodium falciparum, synchronized ring-stage parasites. The procedure:
Numerous compounds were screened in cultures of the malaria parasite P. falciparum 3D7 (chloroquine-sensitive) and DD2 (chloroquine-resistant). The compounds were also screened for toxixcity against 3T3 cells, HepG2 cells, and in a hemolysis assay. In brief, P. falciparum parasites were cultured in RPMI 1640 (Invitrogen) supplemented with Albumax II (Invitrogen). For synchronization, schizont stage parasites were magnet purified using a SuperMACS™ II Cell Separation Unit (Miltenyi Biotech). For IC50 determinations, synchronized ring-stage parasites were plated at 0.5% parasitemia and 8% hematocrit in 96-well plates at a total volume of 50 μL. Serial dilutions of 2× concentration of the respective compound, ranging from 2.5 μM to 20 nM, were added to the wells to bring the total volume up to 100 μL and 4% hematocrit. Compounds were assayed for a 72 hour period, after which the cultures were fixed with a solution of 4% paraformaldehyde and 0.08% glutaraldhyde in PBS. The cells were then permeabilized with 0.25% Triton X-100, and SYTOX Green Nucleic Acid Stain (Invitrogen) in PBS was added to a final concentration of 5 μM. DNA content, as an indicator of parasitemia, was analyzed on an Accuri C6 Flow Cytometer with C-Sampler. IC50 curves were generated using GraphPad Prism (GraphPad Software).

Data set [3] can be described thus: Cytotoxicity against 3T3 cells. The settings on record: mouse, 3T3 cells; read-out: Cytotoxicity 3T3 EC50.
A short description of data set [4]: Cytotoxicity against HepG2 cells. The following applies: human, HepG2 cells; read-out: Cytotoxicity HepG2 EC50.
The nature of the next data set: in vitro.

Values after ≈ are worked out from the molar mass of the structure shown.

Data on 13 compounds can be found in patent publication US20150094294A1, “COMPOUNDS AND METHODS FOR TREATING MALARIA” (Cellceutix Corporation, priority 2012, published 2015).

With `N=C(N)NCCCCC(=O)Nc1cc(C(F)(F)F)cc(NC(=O)c2cc(C(=O)Nc3cc(C(F)(F)F)cc(NC(=O)CCCCNC(=N)N)c3SCCC(=O)O)ncn2)c1SCCC(=O)O` [Compound 168], the IC50 worked out at 0.227 µM in data set [1] and 0.098 µM in data set [2]. In addition, the EC50 in data set [3] was above 100 µM; in data set [4], above 100 µM; in the data set “in vitro”, above 1000 µg/mL.
`NCc1cc(C(F)(F)F)ccc1Oc1ccc(Oc2ccc(C(F)(F)F)cc2CN)cc1` [Compound 166]: the figures for the IC50 in data set [1] and in data set [2] were 0.991 µM and 1.23 µM, respectively. The EC50 came out at 17 µM in data set [3], 71 µM in data set [4] and 364 µg/mL (≈ 798 µM) in “in vitro”.
Take `N=C(N)NCCCCOc1cc(OCCCCNC(=N)N)c(C(F)(F)F)cc1NC(=O)Nc1cc(C(F)(F)F)c(OCCCCNC(=N)N)cc1OCCCCNC(=N)N` [Compound 128]: the IC50 in data set [1] was found to be 0.881 µM; in data set [2] it was 0.886 µM. Further, the EC50 in data set [3] turned out to be 121 µM; in data set [4] it was 232 µM; in the data set “in vitro”, 58 µg/mL (≈ 67.1 µM).
The like results for `N=C(N)NCCc1cccc(NC(=O)c2cc(C(=O)Nc3cccc(CCNC(=N)N)c3)ncn2)c1` [Compound 100] were, in that order, 0.035 µM, 0.135 µM, 769 µM, 830 µM and above 1000 µg/mL.
The like results for `N=C(N)NCCSc1cc(SCCNC(=N)N)c(C(F)(F)F)cc1NC(=O)c1cc(C(=O)Nc2cc(C(F)(F)F)c(SCCNC(=N)N)cc2SCCNC(=N)N)ncn1` [Compound 114] were, in that order, 0.672 µM, 0.656 µM, 31 µM, 57 µM and 61 µg/mL (≈ 66.1 µM).
As to `N=C(N)NCCCCC(=O)Nc1ccc(Oc2cccc(Oc3ccc(NC(=O)CCCCNC(=N)N)cc3)c2)cc1` [Compound 157], the figures for the concentration for half-maximal inhibition (IC50) in data set [1] and in data set [2] were 0.322 µM and 0.244 µM, respectively. Moreover, the EC50 in data set [3] is above 100 µM; in data set [4], above 100 µM; in the data set “in vitro”, 299 µg/mL (≈ 520 µM).
Turning to `N=C(N)NCCCCN1CCc2ccc(NC(=O)c3cc(C(=O)Nc4ccc5c(c4)CCN(CCCCNC(=N)N)CC5)ncn3)cc2CC1` [Compound 151], half-maximal inhibition in data set [2] (IC50) was put at 0.563 µM. Further, the EC50 in data set [3] is 469 µM; in data set [4], 408 µM; in the data set “in vitro”, above 1000 µg/mL.
The like results for `N=C(N)NCCN1CCc2ccc(NC(=O)c3cc(C(=O)Nc4ccc5c(c4)CCN(CCNC(=N)N)CC5)ncn3)cc2CC1` [Compound 150] were, in that order, 0.53 µM, 168 µM, 157 µM and 197 µg/mL (≈ 314 µM).
As to `Fc1cc(NC2CCNCC2)cc(Oc2ccc(Oc3cc(F)cc(NC4CCNCC4)c3)cc2)c1` [Compound 164], the results for the IC50 in data set [1] and in data set [2] were 0.61 µM and 0.98 µM, respectively. The EC50 turned out to be 23 µM in data set [3], 78 µM in data set [4] and 15 µg/mL (≈ 30.3 µM) in the data set “in vitro”.
On the same counts, the results for `NCCSc1ccc(C(F)(F)F)cc1C(=O)Nc1ccc(-c2ccc(NC(=O)c3cc(C(F)(F)F)ccc3SCCN)cc2)cc1` [Compound 174] are 0.593 µM, 0.393 µM, below 16 µM, below 16 µM and 1 µg/mL (≈ 1.47 µM).
As to `N=C(N)NCCCOc1cc(OCCCNC(=N)N)c(-c2ccc(C(F)(F)F)cc2)cc1-c1ccc(C(F)(F)F)cc1` [Compound 144], 0.247 µM corresponded to half-maximal inhibition in data set [2] (IC50). For the same compound, the EC50 is 27 µM in data set [3], 90 µM in data set [4] and 3 µg/mL (≈ 5.03 µM) in the data set “in vitro”.
`NCCCOc1c(-c2cccc(C(F)(F)F)c2)cc(-c2cccc(C(F)(F)F)c2)c(OCCCN)c1-c1cccc(C(F)(F)F)c1` [Compound 145] had an IC50 in data set [2] of 0.658 µM. In addition, the EC50 in data set [3] stood at 14 µM; in data set [4], 28 µM; in “in vitro” it was 6 µg/mL (≈ 9.14 µM).
In data set [2], `NC1CCC(N2CCc3ccc(NC(=O)c4cc(C(=O)Nc5ccc6c(c5)CCN(C5CCC(N)CC5)CC6)ncn4)cc3CC2)CC1` (stereo not drawn) [Compound 148] displayed an IC50 of 0.081 µM. Further, the EC50 in data set [3] is above 1000 µM; in data set [4] it was above 1000 µM; in “in vitro”, above 1000 µg/mL.

One may read the IC50 as the midpoint of a concentration-inhibition curve. For orientation: EC50 means the concentration giving half of the maximal effect.
